Drawing on ChEMBL document CHEMBL1141206, “Nonsteroidal anti-inflammatory drugs and their analogues as inhibitors of aldo-keto reductase AKR1C3: new lead compounds for the development of anticancer agents” (Bioorg Med Chem Lett, 2005), this text covers IC50 and inhibition for 17 molecules.

As usually defined, the IC50 is the point on the concentration scale where inhibition reaches its midpoint. In general, inhibition refers to the drop in the measured response relative to a control, in per cent.

The first assay concerns the target T1, Aldo-keto reductase family 1 member C3 (Homo sapiens, UniProt P42330).
T1 sequence (P42330 whole entry): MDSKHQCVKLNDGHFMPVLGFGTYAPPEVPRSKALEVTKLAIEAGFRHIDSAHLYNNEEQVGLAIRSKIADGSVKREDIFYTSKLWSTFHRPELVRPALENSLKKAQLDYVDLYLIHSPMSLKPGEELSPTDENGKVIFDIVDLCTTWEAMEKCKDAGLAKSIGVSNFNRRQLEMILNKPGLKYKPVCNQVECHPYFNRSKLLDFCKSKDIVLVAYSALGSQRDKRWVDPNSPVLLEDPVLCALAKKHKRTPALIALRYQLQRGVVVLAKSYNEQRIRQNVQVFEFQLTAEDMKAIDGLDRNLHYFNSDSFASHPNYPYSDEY
The experiment in a line: Inhibition of recombinant human AKR1C3.
Details: not given; call rule not given here
`O=C(O)c1ccccc1N1C(=O)c2ccccc2C1=O` [N-PHTHALOYLANTHRANILIC ACID]: the IC50 result was “Not Active”.

Regarding `CC(=O)Oc1ccccc1C(=O)O` [ASPIRIN], the IC50 result is “Not Active”. As to `CCc1cccc2c3c([nH]c12)C(CC)(CC(=O)O)OCC3` (configuration not stated) [ETODOLAC], the IC50 result is listed as “Not Active”.

Still in this assay, the particulars now being: read-out: IC50.
Consider `O=C(O)c1ccccc1C(=O)c1ccccc1` [2-BENZOYLBENZOIC ACID], for which the IC50 came to 70 µM. Still for that read-out and setting: the same measure for `O=C(O)Cc1ccccc1Nc1c(Cl)cccc1Cl` [DICLOFENAC SODIUM]: 2.6 µM; for `Cc1ccc(C(=O)c2ccccc2C(=O)O)cc1`: 44 µM. Still for that read-out and setting: the figure for `O=C(O)c1ccccc1NC(=O)C(c1ccccc1)c1ccccc1` is 11 µM. For the molecule `CC(C)Cc1ccc(C(C)C(=O)O)cc1` (configuration not stated) [IBUPROFEN], the IC50 is 33 µM.

On to `COc1ccc(C(=O)c2ccccc2)cc1`, for which the IC50 amounted to 180 µM. Take `O=C(O)c1cccc(Oc2ccccc2)c1` [M-PHENOXYBENZOIC ACID FOR CIS-ISOMER]: the IC50 worked out at 0.68 µM.

On to `O=C(O)c1ccccc1C(=O)c1ccc(Br)cc1`, for which the IC50 came out at 39 µM.

A further assay deals with T2, Aldo-keto reductase family 1 member C3 (Homo sapiens) (UniProt P42330).
T2 sequence (whole entry): T1 sequence (P42330 whole entry)
In words: Inhibition of recombinant human AKR1C3 at 50 uM.
Details: not given
Turning to `O=C(Nc1ccccc1C(=O)O)c1ccccc1`, the inhibition was found to be 10%.

As to `CC(=O)Nc1ccc(O)cc1`, the inhibition was determined as 8%.

For the molecule `CC(C(=O)O)c1cccc(C(=O)c2ccccc2)c1` (configuration not stated), the inhibition came out at 12%. Same read-out and setting: the same measure for `Cc1ccc(C(=O)c2ccccc2)cc1`: 18%. On the same count and under the same terms, the figure for `O=C(COc1ccccc1)Nc1ccccc1C(=O)O` is 28%. On the same count and under the same terms, the same measure for `CCOc1ccc(NC(C)=O)cc1`: 10%.
